Reference: US20140024667A1, “FUNGICIDAL COMPOSITIONS” (SYNGENTA CROP PROTECTION LLC, priority 2005, published 2014)

Columns and labels:
Assay type in all cases: cell-based
Botrytis cinerea = assay: Fungal growth assay against Botrytis cinerea (Example B-1 a)
Source text: (§1) A synergistic effect exists whenever the action of an active ingredient combination is greater than the sum of the actions of the individual components.
(§2) The action to be expected E for a given active ingredient combination obeys the so-called COLBY formula and can be calculated as follows (COLBY, S. R. “Calculating synergistic and antagonistic responses of herbicide combination”. Weeds, Vol. 15, pages 20-22; 1967):
(§3) ppm=milligrams of active ingredient (=a.i.) per liter of spray mixture X=% action by active ingredient A) using p ppm of active ingredient Y=% action by active ingredient B) using q ppm of active ingredient.
(§4) According to COLBY, the expected (additive) action of active ingredients A)+B) using p+q ppm of active ingredient is
(§5) If the action actually observed (O) is greater than the expected action (E), then the action of the combination is super-additive, i.e. there is a synergistic effect.
(§6) Conidia of the fungus from cryogenic storage are directly mixed into nutrient broth (PDB potato dextrose broth). After placing a (DMSO) solution of the test compounds into a microtiter plate (96-well format) the nutrient broth containing the fungal spores is added. The test plates are incubated at 24 C and the inhibition of growth is determined photometrically after 3 days. The fungicide interactions in the combinations are calculated according to the COLBY method. The data generated in this experiment indicate synergy between cyprodinil and dodine and cyprodinil and pyribencarb when used in mixture with one another.

Pyrenophora teres = assay: Fungal growth assay against Pyrenophora teres (Example B-5 a); conditions: Cyprodinil/Pyribencarb series
Source text: as §1, §2, §3, §4, §5
as §6, with “The test plates are incubated at 24 C and the inhibition of growth is determined photometrically after 3 days.” left out, “and” for “and dodine and cyprodinil and”

Fusarium culmorum = assay: Fungal growth assay against Fusarium culmorum (Example B-14)
Source text: as §1, §2, §3, §4, §5
as §6, with “2” for “3”, “dodine, cyprodinil and fluazinam” for “dodine”

[1] = system: Pseudocercosporella herpotrichoides var. acuformis; assay: Fungal growth assay against Pseudocercosporella herpotrichoides var. acuformis (Example B-8)
Source text: as §1, §2, §3, §4, §5
as §6, with “cyprodinil and boscalid, cyprodinil and dodine and” for “cyprodinil and dodine and”

[2] = 0.008 mg/L alone, Cyprodinil/Pyribencarb series
[3] = 0.016 mg/L alone, Cyprodinil/Pyribencarb series
[4] = 0.031 mg/L alone, Cyprodinil/Pyribencarb series
[5] = 0.125 mg/L alone, Cyprodinil/Pyribencarb series
[6] = 0.25 mg/L alone, Cyprodinil/Pyribencarb series
[7] = 0.5 mg/L alone, Cyprodinil/Pyribencarb series
[8] = 1 mg/L alone, Cyprodinil/Pyribencarb series
[9] = 0.5 mg/L alone, Cyprodinil/Dodine series
[10] = 1 mg/L alone, Cyprodinil/Dodine series
[11] = 2 mg/L alone, Cyprodinil/Dodine series
[12] = 2 mg/L alone, Cyprodinil/Pyribencarb series
[13] = 4 mg/L alone, Cyprodinil/Dodine series
[14] = 4 mg/L alone, Cyprodinil/Pyribencarb series
[15] = 8 mg/L alone, Cyprodinil/Dodine series
[16] = 16 mg/L alone, Cyprodinil/Dodine series
[17] = 0.125 mg/L alone, Cyprodinil/Boscalid series
[18] = 0.125 mg/L alone, Cyprodinil/Dodine series
[19] = 0.25 mg/L alone, Cyprodinil/Boscalid series
[20] = 0.25 mg/L alone, Cyprodinil/Dodine series
[21] = 0.5 mg/L alone, Cyprodinil/Boscalid series

## COC(=O)NCc1cc(/C(C)=N/OCc2cccc(C)n2)ccc1Cl [Pyribencarb]
Botrytis cinerea; [2]
  Observed control in % (% Cobs): 0.4%
Botrytis cinerea; [3]
  Observed control in % (% Cobs): 0%
Botrytis cinerea; [4]
  Observed control in % (% Cobs): 3.3%
Botrytis cinerea; 0.063 mg/L alone, Cyprodinil/Pyribencarb series
  Observed control in % (% Cobs): 2.6%
Botrytis cinerea; [5]
  Observed control in % (% Cobs): 16.4%
Pyrenophora teres; 0.004 mg/L alone
  Observed control in % (% Cobs): 0%
Pyrenophora teres; 0.008 mg/L alone
  Observed control in % (% Cobs): 0%
Pyrenophora teres; 0.016 mg/L alone
  Observed control in % (% Cobs): 0%
Pyrenophora teres; 0.031 mg/L alone
  Observed control in % (% Cobs): 0%
Pyrenophora teres; 0.063 mg/L alone
  Observed control in % (% Cobs): 17.0%
Fusarium culmorum; [5]
  Observed control in % (% Cobs): 0%
Fusarium culmorum; [6]
  Observed control in % (% Cobs): 8.7%
Fusarium culmorum; [7]
  Observed control in % (% Cobs): 11.5%
Fusarium culmorum; [8]
  Observed control in % (% Cobs): 16.2%
[1]; [2]
  Observed control in % (% Cobs): 16.2%
[1]; [3]
  Observed control in % (% Cobs): 40.1%
[1]; [4]
  Observed control in % (% Cobs): 61.1%

## Cc1cc(C2CC2)nc(Nc2ccccc2)n1 [Cyprodinil, (4-cyclopropyl-6-methyl-pyrimidin-2-yl)-phenyl-amine]
Botrytis cinerea; [5]
  Observed control in % (% Cobs): 16.7%
Botrytis cinerea; [6]
  Observed control in % (% Cobs): 22.6%
Botrytis cinerea; [9]
  Observed control in % (% Cobs): 26.7%
Botrytis cinerea; [7]
  Observed control in % (% Cobs): 21.4%
Botrytis cinerea; [10]
  Observed control in % (% Cobs): 38.2%
Botrytis cinerea; [8]
  Observed control in % (% Cobs): 25.7%
Botrytis cinerea; [11]
  Observed control in % (% Cobs): 50.5%
Botrytis cinerea; [12]
  Observed control in % (% Cobs): 23.2%
Botrytis cinerea; [13]
  Observed control in % (% Cobs): 40.1%
Botrytis cinerea; [14]
  Observed control in % (% Cobs): 37.1%
Botrytis cinerea; [15]
  Observed control in % (% Cobs): 51.8%
Pyrenophora teres; 0.25 mg/L alone
  Observed control in % (% Cobs): 52.0%
Pyrenophora teres; 0.5 mg/L alone
  Observed control in % (% Cobs): 59.0%
Fusarium culmorum; 2 mg/L alone, Cyprodinil/Fluazinam series
  Observed control in % (% Cobs): 0%
Fusarium culmorum; [13]
  Observed control in % (% Cobs): 0%
Fusarium culmorum; 4 mg/L alone, Cyprodinil/Fluazinam series
  Observed control in % (% Cobs): 0%
Fusarium culmorum; [15]
  Observed control in % (% Cobs): 0%
Fusarium culmorum; 8 mg/L alone, Cyprodinil/Fluazinam series
  Observed control in % (% Cobs): 0%
Fusarium culmorum; 8 mg/L alone, Cyprodinil/Pyribencarb series
  Observed control in % (% Cobs): 2.4%
Fusarium culmorum; [16]
  Observed control in % (% Cobs): 6.7%
Fusarium culmorum; 16 mg/L alone, Cyprodinil/Fluazinam series
  Observed control in % (% Cobs): 9.8%
Fusarium culmorum; 16 mg/L alone, Cyprodinil/Pyribencarb series
  Observed control in % (% Cobs): 8.4%
Fusarium culmorum; 32 mg/L alone, Cyprodinil/Dodine series
  Observed control in % (% Cobs): 26.9%
Fusarium culmorum; 32 mg/L alone, Cyprodinil/Fluazinam series
  Observed control in % (% Cobs): 16.4%
Fusarium culmorum; 32 mg/L alone, Cyprodinil/Pyribencarb series
  Observed control in % (% Cobs): 21.7%
[1]; 0.0625 mg/L alone, Cyprodinil/Boscalid series
  Observed control in % (% Cobs): 23.5%
[1]; [17]
  Observed control in % (% Cobs): 40.7%
[1]; [18]
  Observed control in % (% Cobs): 10.9%
[1]; [5]
  Observed control in % (% Cobs): 16.6%
[1]; [19]
  Observed control in % (% Cobs): 28.9%
[1]; [20]
  Observed control in % (% Cobs): 14.8%
[1]; [21]
  Observed control in % (% Cobs): 19.6%
[1]; [9]
  Observed control in % (% Cobs): 13.7%
[1]; [7]
  Observed control in % (% Cobs): 30.1%
[1]; 1 mg/L alone, Cyprodinil/Boscalid series
  Observed control in % (% Cobs): 17.5%
[1]; [10]
  Observed control in % (% Cobs): 17.9%
[1]; [8]
  Observed control in % (% Cobs): 19.3%
[1]; 2 mg/L alone, Cyprodinil/Boscalid series
  Observed control in % (% Cobs): 24.6%
[1]; [11]
  Observed control in % (% Cobs): 20.3%
[1]; [12]
  Observed control in % (% Cobs): 21.5%
[1]; 4 mg/L alone, Cyprodinil/Boscalid series
  Observed control in % (% Cobs): 33.6%
[1]; [13]
  Observed control in % (% Cobs): 25.9%
[1]; [14]
  Observed control in % (% Cobs): 27.2%
[1]; [15]
  Observed control in % (% Cobs): 33.6%
[1]; [16]
  Observed control in % (% Cobs): 46.2%

## CCCCCCCCCCCCNC(=N)N [Dodine]
Botrytis cinerea; [13]
  Observed control in % (% Cobs): 0%
Botrytis cinerea; [15]
  Observed control in % (% Cobs): 0%
Botrytis cinerea; [16]
  Observed control in % (% Cobs): 36.3%
Fusarium culmorum; [15]
  Observed control in % (% Cobs): 3.3%
Fusarium culmorum; [16]
  Observed control in % (% Cobs): 15.1%
[1]; [18]
  Observed control in % (% Cobs): 0%
[1]; [20]
  Observed control in % (% Cobs): 0%
[1]; [9]
  Observed control in % (% Cobs): 0%
[1]; [10]
  Observed control in % (% Cobs): 0%
[1]; [11]
  Observed control in % (% Cobs): 1.4%
[1]; [13]
  Observed control in % (% Cobs): 31.3%
[1]; [15]
  Observed control in % (% Cobs): 70.5%
[1]; [16]
  Observed control in % (% Cobs): 72.4%

## O=C(Nc1ccccc1-c1ccc(Cl)cc1)c1cccnc1Cl [Boscalid]
[1]; 0.031 mg/L alone, Cyprodinil/Boscalid series
  Observed control in % (% Cobs): 0%
[1]; 0.063 mg/L alone, Cyprodinil/Boscalid series
  Observed control in % (% Cobs): 2.5%
[1]; [17]
  Observed control in % (% Cobs): 32.8%
[1]; [19]
  Observed control in % (% Cobs): 58.4%
[1]; [21]
  Observed control in % (% Cobs): 77.1%

## O=[N+]([O-])c1cc(C(F)(F)F)c(Cl)c([N+](=O)[O-])c1Nc1ncc(C(F)(F)F)cc1Cl [Fluazinam]
Fusarium culmorum; 0.063 mg/L alone, Cyprodinil/Fluazinam series
  Observed control in % (% Cobs): 5.1%
Fusarium culmorum; 0.125 mg/L alone, Cyprodinil/Fluazinam series
  Observed control in % (% Cobs): 11.8%
Fusarium culmorum; 0.25 mg/L alone, Cyprodinil/Fluazinam series
  Observed control in % (% Cobs): 27.4%
Fusarium culmorum; 0.5 mg/L alone, Cyprodinil/Fluazinam series
  Observed control in % (% Cobs): 35.7%
Fusarium culmorum; 1 mg/L alone, Cyprodinil/Fluazinam series
  Observed control in % (% Cobs): 72.4%
